Measured values published in patent US20260053723A1, “PLAQUE DISCLOSING COMPOSITION” (AIOBIO CO, LTD., priority 2020, published 2026).

Experiments:
[1] = Highest concentration at which RPS was completely dissolved; assay type: physicochemical
Description: (§1) Sterile distilled water (DW, (1)), gargle (GG, Soom Mouthwash, (2)), saliva (S (F-X), (3)) and filtered saliva (S(F-O), (4)) 100 mg/ml RPS stock formulation (plates were prepared after preparation by diluting at concentrations of 100 mg/mL, 50 mg/mL, 25 mg/mL, 12.5 mg/mL, 6.25 mg/ml, 3.12 mg/mL, 1.5 mg/mL, 0.78 mg/mL, 0.39 mg/mL, 0.19 mg/mL, and 0.1 mg/mL.
A plaque staining agent, 2-tone (2T), used in clinical practice was diluted to a concentration of 10% and set as a control group. As an experimental group, two concentrations, 50 mg/mL (the highest concentration at which RPS was completely dissolved) and 0.4 mg/mL (the strongest fluorescence intensity), were selected based on the results of Experimental Example 1 above.

[2] = Evaluation of fluorescence intensity of RPS (Qraycam Pro images, fluorescence spectrometer); assay type: physicochemical
Description: as §1
Each plate prepared was photographed with the Qraycam Pro (AIOBIO, Seoul, Korea) to obtain white light and blue light images. Then, fluorescence intensity was measured using a fluorescence spectrometer (Varioskan, excitation=405 nm/emission=520 nm).

highest concentration at which RPS was completely dissolved [1]: 50 mg/mL
concentration of the maximum fluorescence intensity ([2]; fluorescence spectrometer, excitation=405 nm/emission=520 nm, all solvents (DW, gargle, saliva, filtered saliva)): 0.4 mg/mL
Compound: Cc1cc2nc3c(=O)[nH]c(=O)nc-3n(C[C@H](O)[C@H](O)[C@H](O)COP(=O)([O-])O)c2cc1C.[Na+] [RPS, riboflavin 5-phosphate sodium]
trend of fluorescence intensity with concentration ([2]; fluorescence spectrometer, excitation=405 nm/emission=520 nm): increased from 0.01 mg/mL to 0.39 mg/mL, and then decreased again
fluorescence colour, visual evaluation of images ([2]; shift from high concentration (100 mg/mL) to low concentration): red fluorescence was converted to green fluorescence
difference in fluorescence between solvents, visual evaluation ([2]; white light and blue light images, DW, gargle, saliva, filtered saliva): no difference in fluorescence was observed between solvents
